# Source: patent EP2653477B1, “SCORPION ACTIVE PEPTIDES AND PREPARATION METHODS AND APPLICATIONS THEREOF” (Wuhan More Biotechnology Co., Ltd., priority 2010, dated 2012)
# Bridge positions count the residues as written; N and C are the ends. Peptide text beside a SMILES is read from it.
# Assays:
# Kunming mice = experiment: toxicity study in mice, single intraperitoneal injection, 7 days observation; format: in vivo; conditions: 10 mg/kg intraperitoneally once (100 times the dose for animal model), observed 7 days
# Experimental: 18∼20 g Kunming mice were selected, and divided into 4 groups, 8 male mice and 8 female mice for each group. The lyophilized powders of scorpion active polypeptides ADMR-011, ADMR-016, ADMR-019, ADMR-023 and ADMR-028 were dissolved with normal saline respectively, and the 3 groups of mice were injected intraperitoneally once respectively with polypeptide solution at a dose of 10 mg/kg (100 times of the dose for animal model), and the fourth group were injected with equivalent amount of normal saline as control.
# After the administration, the respiration, motor and heartbeat in animals of all the groups were all normal, without significant abnormal reaction. 7 days after the administration, all the animals were conducted gross anatomy to observe the volume, color and texture of the main organs (heart, liver, spleen, lung, and kidney), and there was no macroscopic lesion. There were no significant difference between the 3 administration groups and the normal saline group.
# potassium channel Kv1.3 = biological target: T1, potassium channel Kv1.3 (Homo sapiens, UniProt P22001); experiment: whole-cell patch clamp, inhibition of Kv1.3 current in transfected COS-7 cells; format: cell-based; conditions: potassium channel Kv1.3 in COS-7 cells, read-out: polypeptide concentrations that inhibit the current by half (IC50 value)
# T1 construct: expressed in transfected cells; host or cells: COS-7 cells, selected with 0.8 mg/mL geneticin
# T1 sequence (P22001 whole entry): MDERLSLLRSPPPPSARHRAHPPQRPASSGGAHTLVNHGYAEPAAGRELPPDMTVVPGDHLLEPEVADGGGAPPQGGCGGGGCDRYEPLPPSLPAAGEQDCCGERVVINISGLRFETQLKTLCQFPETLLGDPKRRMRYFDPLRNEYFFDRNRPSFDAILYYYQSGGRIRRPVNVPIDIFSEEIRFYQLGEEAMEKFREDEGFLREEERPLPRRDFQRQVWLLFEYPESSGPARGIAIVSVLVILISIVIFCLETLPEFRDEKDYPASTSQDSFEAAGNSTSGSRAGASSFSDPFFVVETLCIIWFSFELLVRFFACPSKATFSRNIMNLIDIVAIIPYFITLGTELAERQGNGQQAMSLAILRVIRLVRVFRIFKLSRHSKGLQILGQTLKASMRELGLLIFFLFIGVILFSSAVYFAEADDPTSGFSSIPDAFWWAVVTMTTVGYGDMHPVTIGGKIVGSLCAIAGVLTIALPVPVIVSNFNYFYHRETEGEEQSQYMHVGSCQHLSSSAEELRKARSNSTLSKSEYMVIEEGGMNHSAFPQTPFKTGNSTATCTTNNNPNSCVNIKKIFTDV
# Experimental: COS-7 cells were cultured in a DMEM medium containing 10% fetal calf serum, at 37° C, 5% CO2. The recombinant plasmids of potassium channel Kv1.3 were transfected by using a Sofast™ transfection kit, and the transfected cells were selectively cultured in a medium containing 0.8 mg/mL geneticin. The pharmacological activities of scorpion active polypeptides ADMR-011, ADMR-016, ADMR-019, ADMR-023 and ADMR-028 were tested and analyzed by using an instrument of whole-cell patch clamp (EPC-10 dual-channel patch clamp amplifier HEKA, Elektronik, Lambrecht, Germany). The setting of the experimental parameters, the collecting of data, and the applying of stimulus were all controlled by Pulse software (Elektronik, Lambrecht, Germany). The filter of the instrument was set to be 10 kHz (Bessel), and the electrode impedance was 2∼5 MΩ. After the formation of giga-seal (1∼5 GΩ) between the electrode and cell membrane, an automatic c-fast was performed, and the membrane was broken by slightly applying negative pressure, then an automatic c-slow was performed. At a holding potential of -70 mV, depolarizing pulses, incrementing in 10 mV steps, with a step width of 80 ms , were given to stimulate from -60 mV to +50 mV, and the condition of current was observed. The polypeptides ADMR-011, ADMR-016 and ADMR-019 were accurately perfused, which was achieved by MPS-2 (INBIO Inc, Wuhan, China) perfusing system. After dissolving the three scorpion active polypeptides, they were applied by spraying via DAD Drug Application System (ALA), and the tip of the tube for drug application was about 100 µm away from the cell being recorded.
# It can be known from Figure 16 to Figure 20 that, the pharmacological activity of ADMR-011 on potassium channel Kvl.3 was 91 pM, the pharmacological activity of ADMR-016 on potassium channel Kvl.3 was 2.58 nM, the pharmacological activity of ADMR-019 on potassium channel Kv1.3 was 1.41 nM, and the pharmacological activity of ADMR-023 and ADMR-028 on potassium channel Kvl.3 were 0.49 nM and 0.65 nM, respectively. Therefore, they are polypeptides with potent activity that are currently found internationally.
# Wistar rat EAE model = experiment: EAE (multiple sclerosis) model in Wistar rats induced by GPSCH-CFA, clinical scoring; format: in vivo; conditions: 100 µg·kg^-1 subcutaneously once every day, x±s, n=10, score 0-5
# Text: Experimental animals: female inbred line Wistar rats (6∼8 week old, body weigh 150±10 g) and guinea pigs (300∼400 g, purchased from Wuhan University Laboratory Animal Center) were selected.
# Formulating a mixed emulsion of whole spinal cord homogenate - Freund's complete adjuvant (GPSCH-CFA): a guinea pig was executed, and the spinal cord was rapidly removed, and prepared into 50% PBS homogenate by a ultrasonic disruptor (Sonics & Materials Inc, America), which was mixed with equal amount of Freund's complete adjuvant (BCG vaccine 10 mg/ml), and was pushed back and forth with syringes until forming a water-in-oil emulsion.
# Wistar rat EAE model induced by EAE: GPSCH-CFA emulsion was injected intradermally into the foot pads of both the hind legs of Wistar rats, or simultaneously injected intradermally about 1×10^10 pertussis vaccine. The rats were weighed every day, and observed for their neurological symptoms. Experimental autoimmune encephalomyelitis appeared after the rats had been raised for 2 weeks.
# The rats with experimental autoimmune encephalomyelitis (EAE) were divided into […] groups randomly: normal control group (negative control group), model control group (model rats + normal saline), administration group A (model rats + ADMR-011 polypeptide), administration group B (model rats + ADMR-016 polypeptide), administration group C (model rats + ADMR-019 polypeptide), administration group D (model rats + ADMR-023 polypeptide), and administration group E (model rats + ADMR-028 polypeptide), 10 rats for each group. For the administration groups, polypeptides ADMR-011, ADMR-016, ADMR-019, ADMR-023 and ADMR-028 were injected subcutaneously respectively at a dose of 100 µg·kg^-1, once every day in the morning. For the normal control group and the model control group, equivalent amount of normal saline was injected subcutaneously, and administered continuously. […] The highest clinical score for each animal was recorded, and the average value of them was taken to be the average clinical score.
# The scoring criteria were: without any clinical symptom, 0 point; disappearance of tension in the tail, and observable mild awkward gait, 1 point; weakness in both the hind limbs, which can recover after passive body flipping, 2 points; paralysis in both the hind limbs, which can not recover after passive body flipping, 3 points; tetraplegia accompanied by incontinence of urine and feces, 4 points; moribund state or death, 5 points. Table 1. Scores for rats of various experimental groups in the EAE model (-x±s)
# rheumatoid arthritis = experiment: pristane-induced rheumatoid arthritis in SD rats, joint score and hind foot plantar swelling; format: in vivo; set-up: key to Score of joint: clinical score 1-4: 1 joint red/swollen=1 ... severe whole-limb arthritis=4; conditions: x±s, n=10; for Score of joint: arthritis rats, polypeptides 100 µg·kg^-1 (methotrexate 1.75 µg·kg^-1) subcutaneously once every day, score 1-4; for The swelling degree after the inflammation: volume difference of hind foot before and after the modeling
# Experimental: […] Female (♀) specific pathogen free (SPF) inbred line SD rats (Wuhan University Laboratory Animal Center), body weight 150±10 g, were selected, and pristane was injected intradermally at the base of the tail of rats in experimental groups at a dose of 0.2 ml/rat, after they were acclimatized in a clean-grade environment for 1 week. Rheumatoid arthritis appeared after the rats were raised for only 2 weeks.
# The rats having arthritis were randomized into: normal control group (negative control group), model negative control group (model rat + normal saline), model positive control group (model rat + methotrexate), administration group A (model rat + ADMR-011 polypeptide), administration group B (model rat + ADMR-016 polypeptide), administration group C (model rat + ADMR-019 polypeptide), administration group D (model rat + ADMR-023 polypeptide), and administration group E (model rat + ADMR-028 polypeptide), 10 rats for each group. The administration groups were injected subcutaneously at a dose of 100 µg·kg^-1, once every day in the morning, and administered continuously; the normal control group and the model negative control group were injected subcutaneously with equivalent amount of normal saline; and the model positive control group were injected subcutaneously with methotrexate (MTX) at a dose of 1.75 µg·kg^-1, once every day, and administered continuously.
# The highest clinical score for each animal was recorded, and the average value of them was taken to be the average clinical score. The scoring criteria were: one joint of a rat was red and swollen, 1 point; two joints of a rat were red and swollen, 2 points; all the joints of a rat were red and swollen, 3 points; severe arthritis in the entire limb of a rat, 4 points. Table 2. Arthritis scores for rats of various experimental groups (-x±s)
# From day 8 of the experiment, the hind foot plantar volume of the rat was measured and recorded every other day for 21 consecutive days, and the swelling degree (mL) was calculated according to the volume difference before and after the modeling. Table 3. The swelling degree of rats in various experimental groups (-x±s)
smiles,measurement,setting,value
"CC[C@H](C)[C@H](NC(=O)CNC(=O)[C@@H](N)C(C)C)C(=O)N[C@@H](CC(N)=O)C(=O)N[C@H](C(=O)N[C@@H](CCC(N)=O)C(=O)N[C@H]1CSSC[C@@H]2NC(=O)[C@H](CCC(N)=O)NC(=O)CNC(=O)[C@H](Cc3ccccc3)NC(=O)[C@H](CCCNC(=N)N)NC(=O)[C@H](CCSC)NC(=O)CNC(=O)[C@H](C)NC(=O)[C@H](CC(=O)O)NC(=O)[C@H](CCCCN)NC(=O)[C@@H]3CSSC[C@@H](C(=O)N[C@H](C(=O)N4CCC[C@H]4C(=O)N[C@@H](CCCCN)C(=O)O)[C@@H](C)O)NC(=O)[C@H](CC(=O)O)NC(=O)[C@H](CSSC[C@H](NC(=O)[C@H](CCC(N)=O)NC(=O)[C@H](CCCNC(=N)N)NC(=O)[C@H](CO)NC(=O)[C@H](Cc4c[nH]cn4)NC(=O)[C@H](CC(N)=O)NC1=O)C(=O)N[C@@H](CC(C)C)C(=O)N[C@@H](CCCCN)C(=O)N1CCC[C@H]1C(=O)N3)NC(=O)[C@H]([C@@H](C)O)NC(=O)CNC(=O)[C@H](CC(N)=O)NC(=O)[C@H]([C@@H](C)CC)NC2=O)C(C)C [ADMR-028] (H-VGINVQCNHSRQCLKPCKDAGMRFGQCINGTCDCTPK-OH; disulfide 7-27, 13-32, 17-34 (inferred); N-terminus and C-terminus assumed)",toxicity in mice,Kunming mice,no significant toxicity
same,IC50,potassium channel Kv1.3,0.65 nM
same,Average clinical scores,Wistar rat EAE model; 8 d,0.49±0.12
same,Average clinical scores,Wistar rat EAE model; 10 d,0.95±0.22
same,Average clinical scores,Wistar rat EAE model; 12 d,1.09±0.37
same,Average clinical scores,Wistar rat EAE model; 14 d,1.13±0.29
same,Score of joint,rheumatoid arthritis; 10 d,1.79±0.55
same,Score of joint,rheumatoid arthritis; 15 d,2.11±0.45
same,Score of joint,rheumatoid arthritis; 21 d,1.79±0.63
same,The swelling degree after the inflammation,rheumatoid arthritis; d8,0.037 ± 0.013 mL
same,The swelling degree after the inflammation,rheumatoid arthritis; d15,0.28 ± 0.05 mL
same,The swelling degree after the inflammation,rheumatoid arthritis; d22,0.38 ± 0.13 mL
same,The swelling degree after the inflammation,rheumatoid arthritis; d28,0.31 ± 0.14 mL
